According to patent US6878689B2, “Preventives or remedies for heart failure” (Kaken Pharmaceutical Co., Ltd., priority 2000, dated 2005):
Where a SMILES comes first, the peptide text is derived from it. Where no end group is shown, it is not given here. [ ]: non-standard residue; d: D form. dTrp(2-Me) = Cc1[nH]c2ccccc2c1C[C@@H](N)C(=O)O

System: papillary muscle of guinea-pig
Experiment: Myocardial contractility (developed tension) in isolated, electrically driven papillary muscle of guinea-pig
Conditions: for change in developed tension: isolated guinea-pig papillary muscle, 1 Hz; for tension development (positive inotropic action) vs baseline: cumulative 10, 30 and 100 μM, n=5, FIG. 1
Protocol: [Test Example 1] Myocardial Contractility Enhancing Action of Pralmorelin in the Papillary Muscle of Guinea-Pig
The direct effect of pralmorelin on myocardial contractility was evaluated using the isolated cardiac muscle of guinea-pigs according to the standard method for evaluating myocardial contractility. • 1. Materials and Experimental Method • 1) Animal Used
Male Hartley guinea-pigs (body weight, 301-350 g; Japan SLC) were purchased. The animals were accommodated to an environment at a temperature of 23±2° C. and a humidity of 55±15% under 12-hr light/dark cycles while they were allowed to eat and drink water ad libitum until they weighed 360-480 g. Each test substance was tested on a group of five animals. • 2) Reagents Used
The test substances were pralmorelin dihydrochloride (KP-102), representatives of growth hormone secretagogues such as hexarelin, ghrelin and ibutamorelin methanesulfonate (the last being hereunder referred to as MK-0677) (which were prepared by the method described in JP 6-263737 A (kokai)), as well as a recombinant human growth hormone (Sumitomo Pharmaceutical) and amrinone (Sigma) which is a known therapeutic of acute heart failure. KP-102, hexarelin and MK-0677 were dissolved in distilled water. Ghrelin was dissolved in physiological saline. Amrinone was first dissolved in dimethyl sulfoxide and then diluted with physiological saline. The growth hormone was dissolved in a dedicated solubilizer (0.3 w/v % metacresol and 3.9 w/v % D-mannitol). None of the test substance solutions should be added in an amount exceeding 1 w/v %. All reagents other than the test substances were guaranteed products of Nacalai Tesque. • 3) Preparing Specimens of the Isolated Papillary Muscle
The guinea-pigs were stunned with a blow to the back of their head; thereafter, the carotid artery was incised and the animals were exsanguinated to death. The chest was opened, the blood vessels in the upper part of the heart were cut and the heart was removed. The heart was immediately transferred into a Krebs-Henseleit (K-H) nutrient solution (NaCl, 118.0 mM; KCl, 4.7 mM; CaCl2. 2H2O, 1.0 mM; KH2PO4, 1.2 mM; MgSO4.7H2O, 1.2 mM; NaHCO3, 25.0 mM; glucose, 11.0 mM) that had been fully aerated with 95% O2-5% CO2. The heart was fixed on a rubber-lined Petri dish with needles such that its front face was seen. The ventricular wall of the upper right ventricle (toward the atrium) was excised transversely along the atrium, then excised longitudinally along the interventricular septum so that the ventricular wall was opened to expose the right ventricular papillary muscle. Subsequently, the entire surface of the left ventricle was cut open from the aorta (down) to the apex and the anterior wall of the left ventricle was opened wide, to both right and left, and fixed to expose the papillary muscle of the left ventricle. The tricupsid or mitral valve was cut off from the ventricle and the papillary muscle was cut off at the base to prepare a specimen of papillary muscle. The base of the specimen was fixed to field stimulating electrodes in an organ bath filled with 15 mL of the nutrient solution. The tendinous cord adhering to the valve was tied up with a thread and connected to an FD pickup (TB-612T, Nihon Kohden). A resting tension of 0.5 g was loaded and the papillary muscle was driven with an electric stimulator (SEN-3201, Nihon Kohden) at a frequency of 1 Hz by pulses of 20-ms duration and at a voltage intensity about 1.2 times the threshold. After an equilibration period of about 1 hr, KP-102, hexarelin and amrinone were each applied cumulatively up to amounts of 10, 30 and 100 μM. After examination of the changes in inotropic action due to the application of the test substances, 12.5 mM of CaCl2 was added and the maximum tension that was developed by each specimen was obtained. […]

## CC(C)(N)C(=O)N[C@H](COCc1ccccc1)C(=O)N1CCC2(CC1)CN(S(C)(=O)=O)c1ccccc12 [MK-0677, ibutamorelin methanesulfonate]
100 μM
  change in developed tension: no changes in the developed tension

## Nc1cc(-c2ccncc2)c[nH]c1=O [amrinone]
  tension development (positive inotropic action) vs baseline: increased in a concentration-dependent manner

## Cc1[nH]c2ccccc2c1C[C@@H](NC(=O)[C@@H](N)Cc1cnc[nH]1)C(=O)N[C@@H](C)C(=O)N[C@@H](Cc1c[nH]c2ccccc12)C(=O)N[C@H](Cc1ccccc1)C(=O)N[C@@H](CCCCN)C(N)=O [hexarelin] (H-H[dTrp(2-Me)]AW[dF]K-NH2)
  tension development (positive inotropic action) vs baseline: very weak and by no means significant over the baseline value

## ghrelin (GSSFLSPEHQRVQQRKESKKPPAKLQPR; ends and bridges not checked; UniProt Q9UBU3 24-51, looked up) [representative growth hormone secretagogue]
1 μM
  change in developed tension: no changes in the developed tension

## recombinant human growth hormone: recombinant human growth hormone (Sumitomo Pharmaceutical)
0.2 IU/mL
  change in developed tension: no changes in the developed tension
